According to patent US20150031675A1, “DIAZABICYCLO[3.3.1]NONANES, METHODS OF SYNTHESIS, AND USES THEREOF” (Targacept, Inc., priority 2012, published 2015):
Read-outs that look alike come from different tables or passages of the source.

What was measured:
Human α4β2 nAChR = biological target: T1, Human α4β2 nAChR (Homo sapiens, UniProt P17787+P43681); experiment: Radioligand binding ([3H]nicotine) at α4β2 nAChR, membranes from SH-EP1/human α4β2 clonal cells
T1 construct: expressed in transfected cells; host or cells: SH-EP1 clonal cells expressing human α4β2
Experimental: Preparation of Membranes from SH-EP1/Human α4β2 Clonal Cells:
Cell pellets from 40 150 mm culture dishes were pooled, and homogenized by Polytron (Kinematica GmbH, Switzerland) in 20 milliliters of ice-cold preparative buffer. The homogenate was centrifuged at 48,000 g for 20 minutes at 4° C. The resulting pellet was re-suspended in 20 mL of ice-cold preparative buffer and stored at −20° C.
On the day of the assay, the frozen membranes were thawed and spun at 48,000×g for 20 min. The supernatant was decanted and discarded. The pellet was resuspended in Dulbecco's phosphate buffered saline (PBS, Life Technologies) pH 7.4 and homogenized with the Polytron for 6 seconds. Protein concentrations were determined using a Pierce BCA Protein Assay Kit, with bovine serum albumin as the standard (Pierce Chemical Company, Rockford, Ill.).
Incubation was terminated by rapid filtration on a multi-manifold tissue harvester (Brandel, Gaithersburg, Md.) using GF/B filters presoaked in 0.33% polyethyleneimine (w/v) to reduce non-specific binding. Tissue was rinsed 3 times in PBS, pH 7.4. Scintillation fluid was added to filters containing the washed tissue and allowed to equilibrate. Filters were then counted to determine radioactivity bound to the membranes by liquid scintillation counting (2200CA Tri-Carb LSC, Packard Instruments, 50% efficiency or Wallac Trilux 1450 MicroBeta, 40% efficiency, Perkin Elmer).
Data were expressed as disintegrations per minute (DPMs). Within each assay, each point had 2-3 replicates.

Human α7 nAChR = Human α7 nAChR (UniProt P36544); experiment: Radioligand binding ([3H]MLA) at α7 nAChR
[1] = competition with 5 nM [3H]MLA; Ki by Cheng-Prusoff; read-out: Human α7 Ki
[2] = read-out: Human α7 Ki; competition with 5 nM [3H]MLA; Ki by Cheng-Prusoff

T1 sequence (P43681 29-627 limits assumed): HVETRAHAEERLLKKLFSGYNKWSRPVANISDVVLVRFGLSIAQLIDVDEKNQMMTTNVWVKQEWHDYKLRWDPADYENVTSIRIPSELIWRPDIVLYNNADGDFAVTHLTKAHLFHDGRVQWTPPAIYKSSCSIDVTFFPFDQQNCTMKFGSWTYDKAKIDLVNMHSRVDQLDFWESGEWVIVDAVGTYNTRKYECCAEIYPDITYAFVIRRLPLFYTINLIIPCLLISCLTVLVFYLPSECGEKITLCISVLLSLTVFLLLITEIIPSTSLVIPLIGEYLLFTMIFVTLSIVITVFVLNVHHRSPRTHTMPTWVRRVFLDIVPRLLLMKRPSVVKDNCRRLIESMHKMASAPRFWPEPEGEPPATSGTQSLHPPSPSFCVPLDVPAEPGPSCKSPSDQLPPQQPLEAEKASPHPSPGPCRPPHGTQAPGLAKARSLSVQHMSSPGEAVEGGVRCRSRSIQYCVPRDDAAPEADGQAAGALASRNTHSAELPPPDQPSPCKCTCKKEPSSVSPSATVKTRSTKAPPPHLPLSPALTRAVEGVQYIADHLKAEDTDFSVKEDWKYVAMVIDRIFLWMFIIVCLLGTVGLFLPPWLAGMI
T1 sequence (P17787 26-502): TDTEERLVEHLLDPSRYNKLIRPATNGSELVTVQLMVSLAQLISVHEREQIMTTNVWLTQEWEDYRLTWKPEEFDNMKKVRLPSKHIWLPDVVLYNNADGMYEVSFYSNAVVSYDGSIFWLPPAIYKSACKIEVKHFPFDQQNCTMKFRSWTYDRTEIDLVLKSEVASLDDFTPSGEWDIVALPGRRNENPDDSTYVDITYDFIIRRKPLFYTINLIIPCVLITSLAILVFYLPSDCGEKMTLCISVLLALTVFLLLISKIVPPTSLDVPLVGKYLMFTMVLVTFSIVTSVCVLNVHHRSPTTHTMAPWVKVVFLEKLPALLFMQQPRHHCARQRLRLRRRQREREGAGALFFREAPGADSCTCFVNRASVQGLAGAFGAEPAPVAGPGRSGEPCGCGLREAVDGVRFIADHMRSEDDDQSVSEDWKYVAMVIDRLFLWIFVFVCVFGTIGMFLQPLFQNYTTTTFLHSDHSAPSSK

`c1cncc(N2CC3CC(C2)CN(C2CN4CCC2CC4)C3)c1` (centres unmarked) gave a Ki (Human α4β2 nAChR) of 42 nM and a Ki (Human α7 nAChR; [1]) of 510 nM.
`c1cncc(N2CC3CC(C2)CN(C2CCCNC2)C3)c1` (centres unmarked) gave a Ki (Human α4β2 nAChR; read-out: Human α4β2 Ki) of 0.79 nM and a Ki (Human α7 nAChR; [2]) of 62 nM.
With `c1cncc(N2CC3CC(C2)CN(C2CCNCC2)C3)c1` the Ki (Human α4β2 nAChR) was 14 nM and the Ki (Human α7 nAChR; [1]) was 790 nM.
With `c1cncc(N2CC3CC(C2)CN(C2CCNC2)C3)c1` (centres unmarked) the Ki (Human α4β2 nAChR; read-out: Human α4β2 Ki) was 0.16 nM and the Ki (Human α7 nAChR; [2]) was 24 nM.
Molecule `c1cncc(N2CC3CC(C2)CN(C2CCCNCC2)C3)c1` (centres unmarked) has a Ki (Human α4β2 nAChR; read-out: Human α4β2 Ki) of 0.45 nM and a Ki (Human α7 nAChR; [2]) of 20 nM.
For `c1cncc(N2CC3CC(C2)CN(C2CNC2)C3)c1`, the Ki (Human α4β2 nAChR) was 5.8 nM and the Ki (Human α7 nAChR; [1]) was 550 nM.
`CN1CCC(N2CC3CC(CN(c4cccnc4)C3)C2)C1` (centres unmarked) gave a Ki (Human α4β2 nAChR) of 11 nM and a Ki (Human α7 nAChR; [1]) of 790 nM.
